Measured values published in patent publication US12472179B2, “Combination of a CBP/p300 bromodomain inhibitor and a KRAS inhibitor for the treatment of cancer” (TOLREMO THERAPEUTICS AG, priority 2020, dated 2025).
Entries after “also recorded” stand apart in the source; their conditions may differ.

Legend:
Type in all cases: cell-based
NCI-H358 cells = assay: Label-free determination of cell proliferation, NCI-H358 cell number, AMG510 (Example 9)
Description: 2000 NCI-H358 cells [KCLB; 25807; a non-small cell lung cancer (NSCLC) cell line with KRAS G12C mutation] were seeded into 96 well plates (Greiner BioOne 655090) one day prior to drug treatment in RPMI medium containing 10% FCS and 2 mM L-Glutamine. The next day, the wells were imaged label-free using brightfield imaging on a CELIGO ImageCytometer to determine the initial cell number. […] The cells were regularly imaged over weeks using brightfield mode (CELIGO Imaging Cytometer) to track cell proliferation in each well over time. Growth medium and treatments were replenished twice weekly. […] Cell numbers were determined using CELIGO software's built-in “direct cell counting” analysis tool in the brightfield mode.

SW837 cells = assay: Label-free determination of cell proliferation, SW837 confluency, AMG510 (Example 8); details: for cell proliferation (SW837 confluency), drug alone: SW837 (KRAS G12C), 49 days, single drug: 1 μM Compound A, 0.2 μM Compound C, 0.2 μM CCS1477, 1 μM FT-6876, 0.2 μM GNE-781, 100 nM AMG510; for development of drug resistance / re-growth, combined with AMG510: CBP/p300 bromodomain inhibitor combined with 100 nM AMG510
Description: 2000 SW837 cells [ATCC; CCL-235, a CRC (rectal adenocarcinoma) cell line carrying a KRAS G12C mutation], were seeded into 96 well plates (Greiner BioOne 655090) one day prior to drug treatment in RPMI medium containing 10% FCS and 2 mM L-Glutamine. The next day, the wells were imaged label-free using brightfield imaging on a CELIGO Image Cytometer to determine the initial cell confluency. […] Plates were regularly imaged over weeks using brightfield mode (CELIGO Imaging Cytometer) to track cell confluency in each well over time. Growth medium and treatments were replenished twice weekly. […] Confluency was determined using CELIGO software's built-in “confluence” analysis tool in the brightfield mode.

SNU-1411 cells [1] = assay: Label-free determination of cell proliferation, SNU-1411 confluency, AMG510 (Example 6); details: for cell proliferation (SNU-1411 confluency), drug alone: SNU-1411 (KRAS G12C), 32 days, single drug: 1 μM Compound A, 0.2 μM Compound C, 0.2 μM CCS1477, 1 μM FT-6876, 0.2 μM GNE-781, 300 nM AMG510; for development of drug resistance / re-growth, combined with AMG510: CBP/p300 bromodomain inhibitor combined with 300 nM AMG510
Description: (§1) 2000 SNU-1411 cells [KCLB; 01411, a CRC (rectal adenocarcinoma) cell line carrying a KRAS G12C mutation], were seeded into 96 well plates (Greiner BioOne 655090) one day prior to drug treatment in RPMI medium containing 10% FCS and 2 mM L-Glutamine. The next day, the wells were imaged label-free using brightfield imaging on a CELIGO Image Cytometer to determine the initial cell confluency. […] Plates were regularly imaged over weeks using brightfield mode (CELIGO Imaging Cytometer) to track cell confluency in each well over time. Growth medium and treatments were replenished twice weekly. […] Confluency was determined using CELIGO software's built-in “confluence” analysis tool in the brightfield mode.

SNU-1411 cells [2] = assay: Label-free determination of cell proliferation, SNU-1411 confluency, MRTX849 (Example 7); details: for cell proliferation (SNU-1411 confluency), drug alone: SNU-1411 (KRAS G12C), 32 days, single drug: 1 μM Compound A, 0.2 μM Compound C, 0.2 μM CCS1477, 1 μM FT-6876, 0.2 μM GNE-781, 300 nM MRTX849; for development of drug resistance / re-growth, combined with MRTX849: SNU-1411, 32 days, CBP/p300 bromodomain inhibitor combined with 300 nM MRTX849
Description: as §1

| Structure (SMILES) | cell proliferation (NCI-H358 cell number), drug alone (NCI-H358 cells; NCI-H358 (KRAS G12C), >20 days, single drug: 1 μM Compound A, 200 nM Compound C, 100 nM AMG510) | re-growth in long-term culture, AMG510 alone (NCI-H358 cells; NCI-H358, >20 days, 100 nM AMG510 alone) | cell proliferation (SW837 confluency), drug alone (SW837 cells) | re-growth in long-term culture, AMG510 alone (SW837 cells; SW837, 49 days, 100 nM AMG510 alone) | cell proliferation (SNU-1411 confluency), drug alone (SNU-1411 cells [1]) | re-growth in long-term culture, AMG510 alone (SNU-1411 cells [1]; SNU-1411, 32 days, 300 nM AMG510 alone) | development of drug resistance / re-growth, combined with AMG510 (SW837 cells; SW837, 49 days) | cell proliferation (SNU-1411 confluency), drug alone (SNU-1411 cells [2]) | development of drug resistance / re-growth, combined with MRTX849 (SNU-1411 cells [2]) | development of drug resistance / re-growth, combined with AMG510 (SNU-1411 cells [1]; SNU-1411, 32 days) | development of drug resistance / re-growth, combined with AMG510 (NCI-H358 cells; NCI-H358, >20 days, 1 μM Compound A or 200 nM Compound C combined with 100 nM AMG510) |
| --- | --- | --- | --- | --- | --- | --- | --- | --- | --- | --- | --- |
| C=CC(=O)N1CCN(c2nc(=O)n(-c3c(C)ccnc3C(C)C)c3nc(-c4c(O)cccc4F)c(F)cc23)[C@@H](C)C1 [AMG510] | initially completely blocked cell proliferation | re-grew | initially prevented cell proliferation | re-grew | delayed cell proliferation initially for few days | re-grew | – | – | – | – | – |
| CO[C@H]1CC[C@H](n2c([C@@H]3CCCC(=O)N3c3ccc(F)c(F)c3)nc3cc(-c4c(C)noc4C)ccc32)CC1 [CCS1477] | – | – | do not affect cell proliferation | – | do not affect cell proliferation | – | prevent the development of drug resistance | do not affect cell proliferation | prevent the development of drug resistance | prevent the development of drug resistance | – |
| CC(=O)N1C[C@H](c2nc(Nc3cccc(-c4cn(C)nn4)c3)cc(-c3cnccn3)n2)CC[C@@H]1C [Compound C, 1-((2S,5R)-2-methyl-5-(4-((3-(1-methyl-1H-1,2,3-triazol-4-yl)phenyl)amino)-6-(pyrazin-2-yl)pyrimidin-2-yl)piperidin-1-yl)ethan-1-one] | – | – | – | – | – | – | prevent the development of drug resistance | – | prevent the development of drug resistance | prevent the development of drug resistance | prevent the development of drug resistance; also recorded: completely prevented re-growth |
| COC(=O)N1c2ccc3c(nc(Cc4ccccc4)n3[C@H]3CCC[C@H](C(=O)O)C3)c2CC[C@@H]1C [FT-6876] | – | – | do not affect cell proliferation | – | do not affect cell proliferation | – | prevent the development of drug resistance | do not affect cell proliferation | prevent the development of drug resistance | prevent the development of drug resistance | – |
| CNC(=O)N1CCc2c(c(N3CCCc4cc(-c5cnn(C)c5)c(C(F)F)cc43)nn2C2CCOCC2)C1 [GNE-781] | – | – | do not affect cell proliferation | – | do not affect cell proliferation | – | prevent the development of drug resistance | do not affect cell proliferation | prevent the development of drug resistance | prevent the development of drug resistance | – |
